Data set [1] deals with T1, AaPFK (Aedes aegypti phosphofructokinase) (Aedes aegypti, UniProt A0A903U8I9).
T1 construct: gene 5568472; native enzyme in supernatant of whole-insect homogenate, not purified
T1 sequence (A0A903U8I9 1-790): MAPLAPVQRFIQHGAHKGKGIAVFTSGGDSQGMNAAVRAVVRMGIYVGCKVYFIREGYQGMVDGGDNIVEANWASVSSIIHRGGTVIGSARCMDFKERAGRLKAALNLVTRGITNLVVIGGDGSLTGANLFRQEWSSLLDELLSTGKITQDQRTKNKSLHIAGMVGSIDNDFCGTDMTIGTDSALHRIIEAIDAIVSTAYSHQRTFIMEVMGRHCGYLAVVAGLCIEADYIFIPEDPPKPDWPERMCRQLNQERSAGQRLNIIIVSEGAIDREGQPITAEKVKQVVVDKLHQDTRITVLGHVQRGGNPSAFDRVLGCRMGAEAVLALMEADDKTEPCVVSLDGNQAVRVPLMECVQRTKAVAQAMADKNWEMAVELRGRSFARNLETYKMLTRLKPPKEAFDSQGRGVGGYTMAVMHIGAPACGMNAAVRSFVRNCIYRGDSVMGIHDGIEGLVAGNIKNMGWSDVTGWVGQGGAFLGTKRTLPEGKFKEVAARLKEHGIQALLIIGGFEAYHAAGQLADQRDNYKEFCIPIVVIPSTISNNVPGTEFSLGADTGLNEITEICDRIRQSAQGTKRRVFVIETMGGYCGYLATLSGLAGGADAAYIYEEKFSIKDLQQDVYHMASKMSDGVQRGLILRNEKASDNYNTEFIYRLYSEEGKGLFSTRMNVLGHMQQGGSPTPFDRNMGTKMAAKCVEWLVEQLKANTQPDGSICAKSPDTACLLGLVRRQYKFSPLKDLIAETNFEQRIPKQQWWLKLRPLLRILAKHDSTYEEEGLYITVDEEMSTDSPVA
Put plainly: coupled NADH oxidation assay (aldolase/TPI/alpha-GPDH), […] nm. Format: biochemical. The conditions noted are these: substrate inhibition, allosteric, second site; 1 mM F6P, 5 mM MgCl2, pH 7.4; crude extract; unit not printed (ATP range given in mM).

Substrate in data set [2]: Nc1ncnc2c1ncn2[C@@H]1O[C@H](COP(=O)(O)OP(=O)(O)OP(=O)(O)O)[C@@H](O)[C@H]1O
The data set is described as follows: cells, lysate or membranes. The note with it: 1 mM F6P, 5 mM MgCl2, pH 7.4 (Fig. 1 legend: pH 8.0); crude extract; Table 1 labels this number Kprime = K0.5^h with h 0.741.

As for `Nc1ncnc2c1ncn2[C@@H]1O[C@H](COP(=O)(O)OP(=O)(O)OP(=O)(O)O)[C@@H](O)[C@H]1O` [ATP], the “ATP / Activity [U (mg protein) ^-1]” value in data set [1] was 4.536 ± 0.178.

B1: AaPFK (Aedes aegypti phosphofructokinase) (Aedes aegypti) (protein)
chain: T1 sequence (A0A903U8I9 1-790)
In the case of B1, the K0.5 in data set [2] was determined as 0.43 ± 0.10 mM.

(Values after publication PMC4766633, “Unique PFK regulatory property from some mosquito vectors of disease, and from Drosophila melanogaster” (Parasites & Vectors, 2016).)
